Results as given in patent publication US8735387B2, “Oxazolopyrimidines as Edg-1 receptor agonists” (Sanofi, priority 2008, dated 2014).

target: T1, human Edg-1 receptor (Homo sapiens, UniProt P21453); experiment: GTP-γ-S assay using human Edg-1 receptors (scintillation proximity assay, membrane preparation from CHO Flp-In cell line); assay type: biochemical; settings: example compound at 10 μM; relative to 10 μM S1P; GTP-γ-S SPA, human Edg-1 membranes
T1 construct: expressed in transfected cells; membrane preparation
Procedure, shortened: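 Membranes came from Flp-In CHO cells constitutively expressing human Edg-1 carrying an N-terminal FLAG tag. Compound-induced receptor activation was read as GTP-γ-S binding in a scintillation proximity format.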

T1 sequence (P21453 whole entry): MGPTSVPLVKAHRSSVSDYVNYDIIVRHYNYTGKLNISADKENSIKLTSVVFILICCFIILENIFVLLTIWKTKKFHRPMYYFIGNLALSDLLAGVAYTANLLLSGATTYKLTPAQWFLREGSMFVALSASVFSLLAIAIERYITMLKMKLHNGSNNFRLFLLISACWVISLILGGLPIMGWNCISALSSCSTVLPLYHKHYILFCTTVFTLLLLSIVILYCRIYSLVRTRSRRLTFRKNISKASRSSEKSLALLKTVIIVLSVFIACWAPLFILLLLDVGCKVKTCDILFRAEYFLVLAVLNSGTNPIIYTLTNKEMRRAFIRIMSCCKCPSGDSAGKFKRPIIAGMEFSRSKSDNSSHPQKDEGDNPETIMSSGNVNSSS

% Activation (Edg-1 receptor activation in percent of the activation by 10 μM S1P) [%]	SMILES
116	CCOc1nc(Cc2ccc(Cl)cc2)nc2oc(-c3cc(C)c(OCC(O)CS(=O)(=O)c4ncn[nH]4)c(C)c3)nc12 (centres unmarked) [Example 291]
72	CCOc1nc(Cc2ccc(Cl)cc2)nc2oc(-c3cccc(OCC(=O)NCC(=O)O)c3)nc12 [Example 267]
92	CCOc1nc(Cc2ccc(Cl)cc2)nc2oc(-c3cc(C)c(OCC(O)CS(=O)(=O)c4nnc(C(C)(C)C)[nH]4)c(C)c3)nc12 (centres unmarked) [Example 283]
98	Cc1cc(-c2nc3c(OC(C)C)nc(Cc4ccc(Cl)cc4)nc3o2)cc(C)c1OCC(O)CN1CCOCC1 (centres unmarked) [Example 194]
59	CCCOc1nc(Cc2ccc(Cl)cc2)nc2oc(-c3cc(C)c(OCCc4c(C)noc4C)c(C)c3)nc12 [Example 235]
106	CCCOc1nc(Cc2ccc(Cl)cc2)nc2oc(-c3cc(C)c(OCC(O)CNC(C)=O)c(C)c3)nc12 (centres unmarked) [Example 214]

Further lines, the molecule ahead of its results:

SMILES	% Activation (Edg-1 receptor activation in percent of the activation by 10 μM S1P) [%]
CCCOc1nc(CN2C(=O)COCC2=O)nc2oc(-c3cccc(F)c3)nc12 [Example 62]	94
CCCOc1nc(Cc2ccc(Cl)cc2)nc2oc(-c3cc(F)ccc3F)nc12 [Example 131]	116
CCOc1nc(Cc2ccc(Cl)cc2)nc2oc(-c3cc(C)c(OC)c(C)c3)nc12 [Example 190]	66
CCCOc1nc(Cc2ccc(Cl)cc2)nc2oc(-c3ccncc3F)nc12 [Example 150]	143
CCCOc1nc(Cn2cnc(CO)c2)nc2oc(-c3cccc(F)c3)nc12 [Example 54]	30
CCCOc1nc(CN2C(C(=O)O)CCS2(=O)=O)nc2oc(-c3cccc(F)c3)nc12 (centres unmarked) [Example 180]	41
Cc1cccc(-c2nc3c(OC4COC4)nc(CN4CCOCC4)nc3o2)c1 [Example 187]	116
C=CCCOc1nc(Cc2ccc(Cl)cc2)nc2oc(-c3cccc(C)c3)nc12 [Example 121]	99
CCCOc1nc(Cc2ccc(Cl)cc2)nc2oc(-c3cccc(C)c3C)nc12 [Example 170]	89
CCCOc1nc(Cn2cc(C)cn2)nc2oc(-c3cccc(F)c3)nc12 [Example 58]	35
FCCCOc1nc(CN2CCOCC2)nc2oc(-c3cccc(F)c3)nc12 [Example 31]	59
CCCOc1nc(CN2CC3CC2CO3)nc2oc(-c3cccc(F)c3)nc12 (centres unmarked) [Example 49]	48
CCOc1nc(Cc2ccc(Cl)cc2)nc2oc(-c3cccnc3)nc12 [Example 128]	110
CCCOc1nc(Cn2cnc(C)n2)nc2oc(-c3cccc(F)c3)nc12 [Example 154]	88

same assay, conditions: example compound at 10 μM; relative to 10 μM S1P; GTP-γ-S SPA, human Edg-1 membranes; read-out: % Activation (Edg-1 receptor activation in percent of the activation by 10 μM S1P)

SMILES	activation at 10 µM [%]
CCCOc1nc(Cc2ccc(Cl)cc2)nc2oc(-c3cc(C)c(OCC(=O)O)c(C)c3)nc12 [Example 198, {4-[5-(4-Chloro-benzyl)-7-propoxy-oxazolo[5,4-d]pyrimidin-2-yl]-2,6-dimethyl-phenoxy}-acetic acid]	111
CCCOc1nc(Cc2ccc(Cl)cc2)nc2oc(-c3cc(C)c(OCCO)c(C)c3)nc12 [Example 19, 2-{4-[5-(4-Chloro-benzyl)-7-propoxy-oxazolo[5,4-d]pyrimidin-2-yl]-2,6-dimethyl-phenoxy}-ethanol]	102
Cc1cccc(-c2nc3c(OCC4CC4)nc(CC(C)(C)c4ccccc4)nc3o2)c1 [Example 9, 7-Cyclopropylmethoxy-5-(2-methyl-2-phenyl-propyl)-2-(3-methyl-phenyl)-oxazolo[5,4-d]pyrimidine]	37
